Laboratory results from the supplement of paper PMC8671470.

Test system: MV4-11
Experiment: cell viability (% survival relative to DMSO control, bortezomib = 0%); higher = less cytotoxic
Settings: 10 nM; 72 h
Outline: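 After 72 h at 37 °C with 5% CO2, cell viability in 384-well plates was measured by CellTiter-Glo luminescence. The plates held compounds pre-printed at 1, 10, 100, 1000 or 10000 nM in duplicate, and cells from 10 AML and 5 CML lines seeded at densities titrated to linear growth. Percent survival is the duplicate mean, normalised to vehicle as 100% and a 10 µM positive control as 0%.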

| SMILES | cell viability [%] |
| --- | --- |
| Oc1ccc(Nc2nc(-c3ccc(Cl)cc3)cs2)cc1 [SKI II] | 99.2 |
| Cc1cn([C@H]2C[C@H](O)[C@@H](COP(=O)(O)OP(=O)(O)O)O2)c(=O)[nH]c1=O [Thymidine diphosphate] | 87.8 |
| CN(C)c1cc(NC(=O)CNC(C)(C)C)c(O)c2c1C[C@H]1C[C@H]3[C@H](N(C)C)C(=O)C(C(N)=O)C(=O)[C@@]3(O)C(=O)C1C2=O (some centres not stated) [Tigecycline] | 89.3 |
| COc1ccc2c(C(=S)N(C)CC(=O)O)cccc2c1C(F)(F)F [Tolrestat] | 109 |
| CCC(=O)N1CCN(c2ccc(-n3c(=O)ccc4cnc5ccc(-c6cnc7ccccc7c6)cc5c43)cc2C(F)(F)F)CC1 [Torin1] | 95.7 |
| NC(=O)c1cccc(-c2cccc(OC(=O)NC3CCCCC3)c2)c1 [URB-597] | 96.5 |
| O=C1O[C@H]([C@@H](O)CO)C(O)=C1O [Vitamin C (ascorbate)] | 102 |

Same assay, conditions: 100 nM; 72 h

| SMILES | cell viability [%] |
| --- | --- |
| O=C(C1CC1)N1CC[C@@H](C=C2NNC(=O)N2c2ccc(-c3ccc4occc4c3)cc2)C1 | 81 |
| C[C@H](NC(=O)c1sccc1OCc1ccc(Cl)cc1)c1ccccc1 | 83 |
| O=C(O)C1=CC(=C(c2ccc(O)c(C(=O)O)c2)c2ccc(O)c(C(=O)O)c2)C=CC1=O [Aurintricarboxylic acid] | 86.3 |
| COC(=O)[C@]12CCC(C)(C)C[C@H]1[C@H]1C(=O)C=C3[C@@]4(C)C=C(C#N)C(=O)C(C)(C)[C@@H]4CC[C@@]3(C)[C@]1(C)CC2 [Bardoxolone methyl] | 112 |
| Cc1c(-c2ccc(-c3ccccc3F)cc2)nc2ccc(F)cc2c1C(=O)O [Brequinar] | 94.3 |
| Nc1nc(Cl)nc2c1ncn2[C@H]1C[C@H](O)[C@@H](CO)O1 [Cladribine] | -0.607 |
| O=C1c2cc([N+](=O)[O-])ccc2-n2c1nc1ccccc1c2=O [GNF-Pf-3777] | 97.1 |
| C=C(C)[C@H]1Cc2c(ccc3c2O[C@@H]2COc4cc(OC)c(OC)cc4[C@@H]2C3=O)O1 [Rotenone] | 58.4 |
| Oc1ccc(Nc2nc(-c3ccc(Cl)cc3)cs2)cc1 [SKI II] | 114 |
| Cc1cn([C@H]2C[C@H](O)[C@@H](COP(=O)(O)OP(=O)(O)O)O2)c(=O)[nH]c1=O [Thymidine diphosphate] | 98.6 |
| CN(C)c1cc(NC(=O)CNC(C)(C)C)c(O)c2c1C[C@H]1C[C@H]3[C@H](N(C)C)C(=O)C(C(N)=O)C(=O)[C@@]3(O)C(=O)C1C2=O (some centres not stated) [Tigecycline] | 101 |
| COc1ccc2c(C(=S)N(C)CC(=O)O)cccc2c1C(F)(F)F [Tolrestat] | 98.2 |
| CCC(=O)N1CCN(c2ccc(-n3c(=O)ccc4cnc5ccc(-c6cnc7ccccc7c6)cc5c43)cc2C(F)(F)F)CC1 [Torin1] | 90.8 |
| NC(=O)c1cccc(-c2cccc(OC(=O)NC3CCCCC3)c2)c1 [URB-597] | 109 |
| O=C1O[C@H]([C@@H](O)CO)C(O)=C1O [Vitamin C (ascorbate)] | 111 |

Same assay, conditions: 1000 nM; 72 h

| SMILES | cell viability [%] |
| --- | --- |
| O=C(C1CC1)N1CC[C@@H](C=C2NNC(=O)N2c2ccc(-c3ccc4occc4c3)cc2)C1 | 84 |
| C[C@H](NC(=O)c1sccc1OCc1ccc(Cl)cc1)c1ccccc1 | 96.1 |
| O=C(O)C1=CC(=C(c2ccc(O)c(C(=O)O)c2)c2ccc(O)c(C(=O)O)c2)C=CC1=O [Aurintricarboxylic acid] | 97 |
| COC(=O)[C@]12CCC(C)(C)C[C@H]1[C@H]1C(=O)C=C3[C@@]4(C)C=C(C#N)C(=O)C(C)(C)[C@@H]4CC[C@@]3(C)[C@]1(C)CC2 [Bardoxolone methyl] | 94.3 |
| Cc1c(-c2ccc(-c3ccccc3F)cc2)nc2ccc(F)cc2c1C(=O)O [Brequinar] | 110 |
| Nc1nc(Cl)nc2c1ncn2[C@H]1C[C@H](O)[C@@H](CO)O1 [Cladribine] | -0.0489 |
| O=C1c2cc([N+](=O)[O-])ccc2-n2c1nc1ccccc1c2=O [GNF-Pf-3777] | 67.5 |
| C=C(C)[C@H]1Cc2c(ccc3c2O[C@@H]2COc4cc(OC)c(OC)cc4[C@@H]2C3=O)O1 [Rotenone] | 0.45 |
| Oc1ccc(Nc2nc(-c3ccc(Cl)cc3)cs2)cc1 [SKI II] | 95.9 |
| Cc1cn([C@H]2C[C@H](O)[C@@H](COP(=O)(O)OP(=O)(O)O)O2)c(=O)[nH]c1=O [Thymidine diphosphate] | 102 |
| CN(C)c1cc(NC(=O)CNC(C)(C)C)c(O)c2c1C[C@H]1C[C@H]3[C@H](N(C)C)C(=O)C(C(N)=O)C(=O)[C@@]3(O)C(=O)C1C2=O (some centres not stated) [Tigecycline] | 88.3 |
| COc1ccc2c(C(=S)N(C)CC(=O)O)cccc2c1C(F)(F)F [Tolrestat] | 101 |
| CCC(=O)N1CCN(c2ccc(-n3c(=O)ccc4cnc5ccc(-c6cnc7ccccc7c6)cc5c43)cc2C(F)(F)F)CC1 [Torin1] | 26.1 |
| NC(=O)c1cccc(-c2cccc(OC(=O)NC3CCCCC3)c2)c1 [URB-597] | 99.6 |
| O=C1O[C@H]([C@@H](O)CO)C(O)=C1O [Vitamin C (ascorbate)] | 111 |

Same assay, conditions: 10000 nM; 72 h

| SMILES | cell viability [%] |
| --- | --- |
| O=C(C1CC1)N1CC[C@@H](C=C2NNC(=O)N2c2ccc(-c3ccc4occc4c3)cc2)C1 | 59.9 |
| C[C@H](NC(=O)c1sccc1OCc1ccc(Cl)cc1)c1ccccc1 | 59.9 |
| O=C(O)C1=CC(=C(c2ccc(O)c(C(=O)O)c2)c2ccc(O)c(C(=O)O)c2)C=CC1=O [Aurintricarboxylic acid] | 71.9 |
| COC(=O)[C@]12CCC(C)(C)C[C@H]1[C@H]1C(=O)C=C3[C@@]4(C)C=C(C#N)C(=O)C(C)(C)[C@@H]4CC[C@@]3(C)[C@]1(C)CC2 [Bardoxolone methyl] | 96.9 |
| Cc1c(-c2ccc(-c3ccccc3F)cc2)nc2ccc(F)cc2c1C(=O)O [Brequinar] | 36.8 |
| Nc1nc(Cl)nc2c1ncn2[C@H]1C[C@H](O)[C@@H](CO)O1 [Cladribine] | -0.0474 |
| O=C1c2cc([N+](=O)[O-])ccc2-n2c1nc1ccccc1c2=O [GNF-Pf-3777] | 2.64 |
| C=C(C)[C@H]1Cc2c(ccc3c2O[C@@H]2COc4cc(OC)c(OC)cc4[C@@H]2C3=O)O1 [Rotenone] | 0.258 |
| Oc1ccc(Nc2nc(-c3ccc(Cl)cc3)cs2)cc1 [SKI II] | 4.54 |
| Cc1cn([C@H]2C[C@H](O)[C@@H](COP(=O)(O)OP(=O)(O)O)O2)c(=O)[nH]c1=O [Thymidine diphosphate] | 96.4 |
